Source: ChEMBL document CHEMBL5727147, “Pharmaceutical compounds” (2018)

target: T1, Serine/threonine-protein kinase Chk1 (Homo sapiens, UniProt O14757); assay: Kinase Inhibiting Activity Assay: Chk-1 Kinase Inhibiting ActivityThe compounds of the invention were tested for activity against Chk-1 kinase using the materials and protocols set out below.Reaction Buffer:Base Reaction buffer: 20 mM Hepes (pH 7.5), 10 mM MgCl2, 1 mM EGTA, 0.02% Brij35, 0.02 mg/ml BSA, 0.1 mM Na3VO4, 2 mM DTT, 1% DMSO*Required cofactors are added individually to each kinase reactionReaction Procedure:(i) Prepare indicated substrate in freshly prepared Base Reaction Buffer(ii) Deliver any required cofactors to the substrate solution above(iii) Deliver indicated kinase into the substrate solution and gently mix(iv) Deliver compounds in DMSO into the kinase reaction mixture(v) Deliver 33P-ATP (specific activity 0.01 μCi/μl final) into the reaction mixture to initiate the reaction.(vi) Incubate kinase reaction for 120 minutes at room temperature(vii) Reactions are spotted onto P81 ion exchange paper (Whatman #3698-915)(viii) Wash filters extensively in 0.1% phosphoric acid.(ix) Dry filters and measure counts in scintillation counterKinase Information:CHK-1 Genbank Accession # AF016582Recombinant full length construct, N-terminal GST tagged, purified from insect cells.No special measures were taken to activate this kinase.Final concentration in assay=0.5 nMSubstrate: CHKtidePeptide sequence: [[…]]Final concentration in assay=20 μM
T1 sequence (O14757 whole entry): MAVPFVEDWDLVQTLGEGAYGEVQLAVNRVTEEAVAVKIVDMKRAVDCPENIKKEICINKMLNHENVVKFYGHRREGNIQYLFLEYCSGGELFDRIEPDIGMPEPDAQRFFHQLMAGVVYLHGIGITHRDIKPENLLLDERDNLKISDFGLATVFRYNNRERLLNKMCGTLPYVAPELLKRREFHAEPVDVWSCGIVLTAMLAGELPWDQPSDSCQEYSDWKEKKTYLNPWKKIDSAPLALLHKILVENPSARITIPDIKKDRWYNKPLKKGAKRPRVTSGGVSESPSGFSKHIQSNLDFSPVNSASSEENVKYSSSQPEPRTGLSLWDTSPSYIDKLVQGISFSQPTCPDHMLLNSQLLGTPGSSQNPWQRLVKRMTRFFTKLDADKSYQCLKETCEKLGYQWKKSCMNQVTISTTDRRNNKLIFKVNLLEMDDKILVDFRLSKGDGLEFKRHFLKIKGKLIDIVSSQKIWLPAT

IC50 [nM] | Structure (SMILES)
0.59 | COc1cc(CNC(=O)C2CC2)ccc1-c1cc(Nc2cnc(C#N)cn2)n[nH]1
< 1 | COc1cc(OCc2cocn2)ccc1-c1cc(Nc2cnc(C#N)cn2)n[nH]1
0.51 | COc1cc(C2CCCCN2C)ccc1-c1cc(Nc2cnc(C#N)cn2)n[nH]1 (stereo not drawn)
